The record followed here is PubChem BioAssay AID1053138 (Broad Institute, 2014).

For orientation: AC50 means the concentration giving half of the maximal activity seen.

Test [1] in a line: Trib1 mRNA induction in HepG2 cells, dose response, cell-based, qPCR (AID 1053138). As to conditions: HepG2 Trib1 mRNA qPCR, 24 h; measured here: Trib1 mRNA max fold induction; stronger effect = higher value. Background: Real-time PCR tracks product formation cycle by cycle.
Test [2] has as its system HepG2 Trib1 mRNA qPCR, 24 h. The description is as above.

Activity calls are given as the source filed them. The rule behind the calls is not given here.

Take `CN1C(=O)c2cc(NC(=O)c3ccc(C(F)(F)F)cc3)ccc2OC[C@@H]2O[C@H](CC(=O)NC3Cc4ccccc4C3)CC[C@@H]21`: the fold change in test [1] is 3.7. In addition, the AC50 in test [2] is 0.31 µM.

As for `CN1C(=O)c2cc(NC(=O)c3ccc(C(F)(F)F)cc3)ccc2OC[C@@H]2O[C@@H](CC(=O)NC3Cc4ccccc4C3)CC[C@@H]21`, the fold change in test [1] stood at 2.7. The AC50 in test [2] was 1.7 µM.

Turning to `CN1C(=O)c2cc(NC(=O)c3ccc(C(F)(F)F)cc3)ccc2OC[C@@H]2O[C@H](CC(=O)NC3Cc4ccccc4C3)CC[C@H]21`, in test [1], the fold change is 1.3. Further, in test [2], the AC50 was > 25 µM (inactive).
